Data published in ChEMBL document CHEMBL1130455, “Synthesis and antirheumatic activity of novel tetrahydro-6-quinolineacetic acid derivatives” (1997).

Tests used:
Type in all cases: functional
Mus musculus [1] = test: Inhibitory effect on vascular permeability in mice [inhibitory rate of compound 100 mg/kg administered perorally]/[inhibitory rate of diclofenac-Na 25 mg/kg administered perorally]
Rattus norvegicus [2] = test: Inhibitory effect on adjuvant arthritis in rats at a dose of 12.5 mg/kg, (the value is obtained by comparison between the non-injected paw volumes of the arthritic and control)
Rattus norvegicus [3] = test: Inhibitory effect on adjuvant arthritis in rats at a dose of 25 mg/kg, (the value is obtained by comparison between the non-injected paw volumes of the arthritic and control).
Ovis aries = species on record: Ovis aries; test: In vitro inhibitory effect of anti-sheep erythrocyte IgM antibody-producing cells, (value is obtained by the number of IgM-PFC in the tested group and that in the control) at a concentration of 2*10e-6M
Rattus norvegicus [4] = test: Inhibitory effect on adjuvant arthritis in rats at a dose of 100 mg/kg (the value is obtained by comparison between the non-injected paw volumes of the arthritic and control)
Rattus norvegicus [5] = test: Inhibitory effect on adjuvant arthritis in rats at a dose of 25 mg/kg (the value is obtained by comparison between the non-injected paw volumes of the arthritic and control)
Rattus norvegicus [6] = test: Inhibitory effect on adjuvant arthritis in rats at a dose of 50 mg/kg (the value is obtained by comparison between the non-injected paw volumes of the arthritic and control)
Rattus norvegicus [7] = test: Inhibitory effect on adjuvant arthritis in rats at a dose of 12.5 mg/kg (the value is obtained by comparison between the non-injected paw volumes of the arthritic and control).
Rattus norvegicus [8] = test: Inhibitory effect on adjuvant arthritis in rats at a dose of 25 mg/kg (the value is obtained by comparison between the non-injected paw volumes of the arthritic and control).
Rattus norvegicus [9] = test: Inhibitory effect on adjuvant arthritis in rats at a dose of 10 mg/kg (the value is obtained by comparison between the non-injected paw volumes of the arthritic and control)
Mus musculus [10] = test: Inhibitory effect on vascular permeability in mice [inhibitory rate of compound 50 mg/kg administered perorally]/[inhibitory rate of diclofenac-Na 25 mg/kg administered perorally]
Rattus norvegicus [11] = test: Inhibitory effect on adjuvant arthritis in rats at a dose of 25.0 mg/kg (the value is obtained by comparison between the non-injected paw volumes of the arthritic and control).; details: for inhibition in vivo at 25 mg/kg: Rattus norvegicus
Rattus norvegicus [12] = test: Inhibitory effect on adjuvant arthritis in rats at a dose of 12.5 mg/kg (the value is obtained by comparison between the non-injected paw volumes of the arthritic and control)
Rattus norvegicus [13] = test: Bone damage score on day 27(the result of radiolgic analysis of non-injected paws on day 27) the bone destruction advances in the articular of adjuvant arthritic rat at a dose of 25 mg/kg
Rattus norvegicus [14] = test: Inhibitory effect on adjuvant arthritis in rats at a dose of 6.3 mg/kg (the value is obtained by comparison between the non-injected paw volumes of the arthritic and control).
Rattus norvegicus [15] = species on record: Rattus norvegicus; test: The suppression of calcium release from bone stimulated with PTH in vitro at a concentration of 0.4 ug/mL expressed as percent inhibition of bone resorption.
Rattus norvegicus [16] = species on record: Rattus norvegicus; test: The suppression of calcium release from bone stimulated with PTH in vitro at a concentration of 10.0 ug/mL expressed as percent inhibition of bone resorption
Rattus norvegicus [17] = species on record: Rattus norvegicus; test: The suppression of calcium release from bone stimulated with PTH in vitro at a concentration of 2.0 ug/mL expressed as percent inhibition of bone resorption.
Rattus norvegicus [18] = species on record: Rattus norvegicus; test: The suppression of calcium release from bone stimulated with IL1-beta in vitro at a concentration of 0.4 ug/mL expressed as percent inhibition of bone resorption
Rattus norvegicus [19] = species on record: Rattus norvegicus; test: The suppression of calcium release from bone stimulated with IL1-beta in vitro at a concentration of 10.0 ug/mL expressed as percent inhibition of bone resorption
Rattus norvegicus [20] = species on record: Rattus norvegicus; test: The suppression of calcium release from bone stimulated with IL1-beta in vitro at a concentration of 2.0 ug/mL expressed as percent inhibition of bone resorption.
Rattus norvegicus [21] = test: Bone damage score on day 27(the result of radiolgic analysis of non-injected paws on day 27) the bone destruction advances in the articular of adjuvant arthritic rat at a dose of 0.5 mg/kg

Q: `CC1CCc2cc(CC(=O)O)cc(Cl)c2N1` (stereo not given) was tested. Which inhibition ratio vs diclofenac (Mus musculus [1]) did it give?
A: 1.94

Q: And the inhibition in vivo at 12.5 mg/kg (Rattus norvegicus [2])?
A: 42%

Q: And the inhibition in vivo at 25 mg/kg (Rattus norvegicus [3])?
A: 56%

Q: And the Inhibition (Ovis aries)?
A: 60%

Q: Which results are given for `O=C(O)Cc1cc(Cl)c2c(c1)CCC(c1ccccc1F)N2` (stereo not given)?
A: inhibition ratio vs diclofenac (Mus musculus [1]): 2.09; inhibition in vivo at 100 mg/kg (Rattus norvegicus [4]): 64%; inhibition in vivo at 25 mg/kg (Rattus norvegicus [5]): 19%; inhibition in vivo at 50 mg/kg (Rattus norvegicus [6]): 52%

Q: For `CCCC1CCc2cc(CC(=O)O)cc(Cl)c2N1` (stereo not given), which inhibition ratio vs diclofenac (Mus musculus [1]) is on record?
A: 1.59

Q: What about the inhibition in vivo at 12.5 mg/kg (Rattus norvegicus [7]) of the same molecule?
A: 32%

Q: What about the inhibition in vivo at 25 mg/kg (Rattus norvegicus [8]) of the same molecule?
A: 47%

Q: For `O=C(O)Cc1cc(Cl)c2c(c1)CCCN2`, which inhibition ratio vs diclofenac (Mus musculus [1]) is on record?
A: 1.44

Q: What about the inhibition in vivo at 100 mg/kg (Rattus norvegicus [4]) of the same molecule?
A: 55%

Q: What about the inhibition in vivo at 10 mg/kg (Rattus norvegicus [9]) of the same molecule?
A: 27%

Q: And the inhibition in vivo at 50 mg/kg (Rattus norvegicus [6])?
A: 20%

Q: For `CC1(C)CCc2cc(CC(=O)O)cc(Cl)c2N1`, which inhibition ratio vs diclofenac (Mus musculus [1]) is on record?
A: 1.22

Q: How did the inhibition ratio vs diclofenac (Mus musculus [1]) turn out when `O=C(O)Cc1cc(Cl)c2c(c1)CCC(C(=O)O)N2` (stereo not given) was run?
A: 0

Q: `O=C(O)Cc1ccc2c(c1)CCCN2` was tested. Which inhibition ratio vs diclofenac (Mus musculus [1]) did it give?
A: 1.06

Q: For `CCC1CCc2cc(CC(=O)O)cc(Cl)c2N1` (stereo not given), which inhibition ratio vs diclofenac (Mus musculus [1]) is on record?
A: 1.54

Q: Which results are given for `O=C(O)Cc1cc(Cl)c2c(c1)CCC(C(F)(F)F)N2` (stereo not given)?
A: inhibition ratio vs diclofenac (Mus musculus [10]): 0.99; inhibition ratio vs diclofenac (Mus musculus [1]): 1.48; inhibition in vivo at 12.5 mg/kg (Rattus norvegicus [7]): 36%; Inhibition (Ovis aries): 71%; Inhibition (Rattus norvegicus [11]; 25 mg/kg): 46%; inhibition in vivo at 25 mg/kg (Rattus norvegicus [11]): 45%

Q: With `CC(C)C1CCc2cc(CC(=O)O)cc(Cl)c2N1` (stereo not given) as the molecule, how does the inhibition ratio vs diclofenac (Mus musculus [1]) read?
A: 1.1

Q: `O=C(O)Cc1cc(Cl)c2c(c1)CCC(c1ccccc1)N2` (stereo not given) was tested. Which inhibition ratio vs diclofenac (Mus musculus [1]) did it give?
A: 1.63

Q: For `COc1ccc(C2CCc3cc(CC(=O)O)cc(Cl)c3N2)cc1` (stereo not given), which inhibition ratio vs diclofenac (Mus musculus [1]) is on record?
A: 0.62

Q: What does the source list for `O=C(O)Cc1cc(Cl)c2c(c1)CC[C@H](C(F)(F)F)N2`?
A: inhibition ratio vs diclofenac (Mus musculus [10]): 0.43; inhibition ratio vs diclofenac (Mus musculus [1]): 1.5; inhibition in vivo at 12.5 mg/kg (Rattus norvegicus [12]): 3%; inhibition in vivo at 25 mg/kg (Rattus norvegicus [11]): 20%

Q: For `O=C(O)Cc1cc(Cl)c2c(c1)CC[C@@H](C(F)(F)F)N2`, which inhibition ratio vs diclofenac (Mus musculus [10]) is on record?
A: 1.28

Q: And the inhibition ratio vs diclofenac (Mus musculus [1])?
A: 1.62

Q: And the Bone damage score (Rattus norvegicus [13])?
A: 2.5

Q: What about the inhibition in vivo at 12.5 mg/kg (Rattus norvegicus [7]) of the same molecule?
A: 34%

Q: And the inhibition in vivo at 6.3 mg/kg (Rattus norvegicus [14])?
A: 25%

Q: And the Inhibition (Rattus norvegicus [15])?
A: 41%

Q: And the Inhibition (Rattus norvegicus [16])?
A: 94%

Q: What about the Inhibition (Rattus norvegicus [17]) of the same molecule?
A: 61%

Q: And the Inhibition (Rattus norvegicus [18])?
A: 24%

Q: And the Inhibition (Rattus norvegicus [19])?
A: 97%

Q: And the Inhibition (Rattus norvegicus [20])?
A: 78%

Q: And the inhibition in vivo at 25 mg/kg (Rattus norvegicus [11])?
A: 60%

Q: Which Bone damage score (Rattus norvegicus [21]) does the source give for `O=C([O-])Cc1ccccc1Nc1c(Cl)cccc1Cl.[Na+]` [DICLOFENAC SODIUM] here?
A: 4.3
